Legend:
[1] = Steady-state plasma exemestane concentration two hours after dosing; type: in vivo, human; settings: for Relative % change per variant allele (95% CI): additive model
[2] = cited from earlier work
breast cancer = settings: letrozole compared to placebo in 352 minority patients, p=0.53; cited from earlier work
[3] = CYP3A4*22 rs35599367, oral 25 mg/day, 2 h post-dose

## C=C1C[C@@H]2[C@H](CC[C@]3(C)C(=O)CC[C@@H]23)[C@@]2(C)C=CC(=O)C=C12 [exemestane]
[1]; 1st Tertile (CrCl > 108.5 mL/min), 2 h post-dose
  Median Exemestane Concentration: 5.9 ng/mL
[1]; 2nd CrCl tertile vs 1st tertile (reference)
  Relative % Change Compared with Reference (95% Confidence Interval): +42.9% (8.3%–88.5%)
[1]; 2nd Tertile (83.0 < CrCl ≤ 108.5), 2 h post-dose
  Median Exemestane Concentration: 8.6 ng/mL
[1]; 3rd CrCl tertile vs 1st tertile (reference)
  Relative % Change Compared with Reference (95% Confidence Interval): +51.1% (14.5%–99.5%)
[1]; 3rd Tertile (CrCl ≤ 83.0 mL/min), 2 h post-dose
  Median Exemestane Concentration: 8.0 ng/mL
[1]; AKR1C4 Leu311Val rs17134592
  Relative % change per variant allele (95% CI): −8% (−25%, 13%)
[1]; AKR7A2 A142T rs1043657
  Relative % change per variant allele (95% CI): −1% (−22%, 26%)
[1]; Age, per year increase
  Relative % Change (95% Confidence Interval): +0.8% (−0.4%, 2%)
[1]; BMI, per unit increase
  Relative % Change (95% Confidence Interval): −1.5% (−3%, 0%)
[1]; Black vs White (reference)
  Relative % Change Compared with Reference (95% Confidence Interval): −32.2% (−52.1%–−4.0%)
[1]; CYP1A1 15:74724835 rs2606345
  Relative % change per variant allele (95% CI): 0% (−13%, 15%)
[1]; CYP1A1*2 rs4646903
  Relative % change per variant allele (95% CI): +16% (−7%, 46%)
[1]; CYP1B1 2:38080367 rs162555
  Relative % change per variant allele (95% CI): 6% (−11%, 26%)
[1]; CYP1B1 Ala119Ser rs1056827
  Relative % change per variant allele (95% CI): −1% (−15%, 16%)
[1]; CYP1B1 Arg48Gly rs10012
  Relative % change per variant allele (95% CI): −4% (−18%, 12%)
[1]; CYP3A4*1G rs2242480
  Relative % change per variant allele (95% CI): −4% (−20%, 15%)
[1]; [3]
  Median Concentration (range), Heterozygous: 10.7 (2.8 – 72.0) ng/mL
  Median Concentration (range), Homozygous Wild-type: 7.7 (2.5 – 42.2) ng/mL
[1]; CYP4A11 −845A/G rs9332978
  Relative % change per variant allele (95% CI): +14% (−15%, 51%)
[1]; LLOQ 2.5 ng/mL, 26 of 246 patients
  Patients with concentration <LLOQ: 10.6%
[1]; Sample Collection Time 1 month, 2 h post-dose
  Median Exemestane Concentration: 6.0 ng/mL
[1]; Sample Collection Time 3 month, 2 h post-dose
  Median Exemestane Concentration: 8.0 ng/mL
[1]; elevated aminotransferases Yes vs No (reference)
  Relative % Change Compared with Reference (95% Confidence Interval): +42.9% (0.6%, 103%)
[1]; per unit increase in BMI
  Decrease in exemestane concentration per unit increase in BMI: 1.5%
[2]; hepatic impairment based on Child-Pugh grade
  Greater exemestane exposure in patients with hepatic impairment: 2–3 fold
[2]; renal impairment
  Greater exemestane exposure in patients with renal impairment: 2–3 fold

## N#Cc1ccc(C(c2ccc(C#N)cc2)n2cncn2)cc1 [letrozole]
Breast cancer
  Disease free survival hazard ratio: 1.39

Source: article PMC5323433 (The pharmacogenomics journal, 2016)
